Values of other authors, collected in patent publication US20050218054A1, “Apparatus for Producing sterilized water” (priority 2002, published 2005).

Conditions: same chlorine concentration

## OCl [hypochlorous acid ion]
  Sterilization power relative to hypochlorous acid (HOCL): about 1/80
